Measured values as given in patent publication US20110097274A1, “Carbon-11 and fluorine-18 labeled radioligands for positron emission tomography (PET) imaging for the brain serotonin transporters” (priority 2002, published 2011).
Where “and” joins values, the source holds several entries; their conditions need not be identical. Identical values can stand only once.

How the values were obtained:
[1] = Plasma free fraction (f1) and filter retention by ultrafiltration; assay type: in vitro ADME, baboon; settings: mean ± SD of four experiments
Experimental: Plasma and ultrafiltrate activities were counted, and f1 was calculated as the ratio of ultrafiltrate activity to total plasma activity. Triplicate aliquots of the radioligand in pH 7.4 Tris buffer were also processed to determine the filter retention of free tracer.

SERT = assay: Baboon PET imaging: brain uptake, kinetic analysis and SERT parameters; assay type: in vivo
Experimental: PET imaging protocol: PET experiments (n=20) were performed at Columbia University. Two adult male baboons (baboon A and B) were studied twice with each of the 5 radioligands (4 experiments per radioligand). All experiments took place within a 9-month period. Baboons A and B were 31 kg and 21 kg in weight at the beginning of the experimental period and 28 and 22 kg at the end, respectively. Test and retest experiments with the same radioligand were obtained on different days, with an average interval of 117±53 days.
Experiments were performed according to protocols approved by the Columbia-Presbyterian Medical Center Institutional Animal Care and Use Committee. Fasted animals were immobilized with ketamine (10 mg/kg i.m.), and anesthetized with 1.8% isoflurane via an endotracheal tube. Vital signs were monitored every 10 minutes and the temperature was kept constant at 37° C. with heated water blankets. An i.v. perfusion line was used for hydration and injection of radioligands and nonradioactive drugs. A catheter was inserted in a femoral artery for arterial blood sampling. Head was positioned at the center of the field of view as defined by imbedded laser lines. PET imaging was performed with the ECAT EXACT HR+PET scanner (Siemens/CTI, Knoxville, Tenn.). In 3D mode, this camera provides an in-plane resolution of 4.3 mm, 4.5 mm, 5.4 mm and 8.0 mm full width at half maximum (FWHM) at a distance of 0, 1, 10 and 20 cm from the center of the field of view, respectively (Brix et al., 1997). A 15 minute transmission scan was obtained prior to radioligand injection for attenuation correction. Activity was injected i.v. over 30 seconds. […] Emission data was collected in the 3D mode for 91 minutes as 21 successive frames of increasing duration (6*10 seconds, 2*1 minutes, 4*2 minutes, 2*5 minutes, and 7*10 minutes).
Image analysis: A Magnetic Resonance Image (MRI) of each baboon's brain was obtained for the purpose of identifying the regions of interest (ROI) (T1-weighted axial MRI sequence, acquired parallel to the anterior-posterior commissure, TR 34 msec, TE 5 msec, flip angle of 45 degrees, slice thickness is 1.5 mm, zero gap, matrix 1.5 mm×1 mm×1 mm voxels). The following regions were drawn on the MR images: cerebellum, midbrain, thalamus, striatum, hippocampus, temporal cortex, cingulate cortex and occipital cortex.
PET emission data were attenuation-corrected using the transmission scan, and frames were reconstructed using a Shepp filter (cutoff 0.5 cycles/projection rays). Reconstructed image files were then processed using the image analysis software MEDx (Sensor Systems, Inc., Sterling, Va.). An image was created by summing all the frames, and this summed image was used to define the registration parameters with the MR image, using between-modality automated image registration (AIR) algorithm (Woods et al., 1993). Registration parameters were then applied to the individual frames for registration to the MR data set. Regional boundaries were transferred to the individual registered PET frames, and time-activity curves were measured and decay-corrected. Right and left regions were averaged. For a given animal, the same regions were used for all radioligands.
Brain uptake: Total brain uptake was expressed as percentage of the injected dose per gram of tissue (% ID g^−1) in a region encompassing the entire brain. Regional peak time was defined as the mid-time of the frame associated with the highest activity value. To estimate the degree of wash-out from the brain captured during the scan interval (91 minutes), the decrease in activity from the peak frame to the last frame was calculated and expressed in percentage of the peak activity.
Kinetic analysis: Regional total distribution volumes (VT, mL g^−1) were derived with kinetic analysis of the regional time-activity curves, using the arterial plasma concentrations as input function. […]

[2] = BP = VT ROI − VT CER, baboons, mean ± SD of four experiments
[3] = Mean ± SD of four experiments in two baboons
[4] = baboon A, experiments of FIGS. 5-9 (FIG. 10)
[5] = baboons, mean ± SD of four experiments
[6] = last scan 90 minutes, baboons, mean ± SD of four experiments
[7] = one-tissue compartment model, baboons, mean ± SD of four experiments

## CN([11CH3])Cc1ccccc1Sc1ccc(CF)cc1N [[^11C]AFM, [^11C]2-[2-(Dimethylaminomethyl)phenylthio]-5-fluoromethylphenylamine]
[1]; activity remaining on filter, radioligand dissolved in saline
  Filter retention: 19.3 ± 4.1%
[1]; baboon plasma, ultrafiltration
  f1 (plasma free fraction): 9.6 ± 0.5%
SERT; [2]
  Binding potential Cingulate Cortex: 8.5 ± 1.0 mL/g
  Binding potential Hippocampus: 20.9 ± 2.5 mL/g
  Binding potential Midbrain: 65.8 ± 11.7 mL/g
  Binding potential Occipital Cortex: 7.3 ± 1.3 mL/g
  Binding potential Striatum: 31.3 ± 6.5 mL/g
  Binding potential Temporal Cortex: 11.8 ± 0.9 mL/g
  Binding potential Thalamus: 71.3 ± 16.5 mL/g
SERT; Baboon A, single experiment
  Equilibrium specific to non-specific partition coefficient (V3″) Cingulate Cortex: 0.30 and 0.26
  Equilibrium specific to non-specific partition coefficient (V3″) Hippocampus: 0.70 and 0.75
  Equilibrium specific to non-specific partition coefficient (V3″) Midbrain: 2.13 and 2.18
  Equilibrium specific to non-specific partition coefficient (V3″) Occipital Cortex: 0.29 and 0.30
  Equilibrium specific to non-specific partition coefficient (V3″) Striatum: 0.97 and 0.92
  Equilibrium specific to non-specific partition coefficient (V3″) Temporal Cortex: 0.38 and 0.46
  Equilibrium specific to non-specific partition coefficient (V3″) Thalamus: 2.10
SERT; Baboon B, single experiment
  Equilibrium specific to non-specific partition coefficient (V3″) Cingulate Cortex: 0.30 and 0.25
  Equilibrium specific to non-specific partition coefficient (V3″) Hippocampus: 0.61 and 0.69
  Equilibrium specific to non-specific partition coefficient (V3″) Midbrain: 1.94 and 2.33
  Equilibrium specific to non-specific partition coefficient (V3″) Occipital Cortex: 0.18 and 0.20
  Equilibrium specific to non-specific partition coefficient (V3″) Striatum: 1.06 and 1.11
  Equilibrium specific to non-specific partition coefficient (V3″) Temporal Cortex: 0.35 and 0.37
  Equilibrium specific to non-specific partition coefficient (V3″) Thalamus: 2.46 and 2.58
SERT; [3]
  Equilibrium specific to non-specific partition coefficient (V3″) Cingulate Cortex: 0.28 ± 0.02
  Equilibrium specific to non-specific partition coefficient (V3″) Hippocampus: 0.69 ± 0.06
  Equilibrium specific to non-specific partition coefficient (V3″) Midbrain: 2.14 ± 0.16
  Equilibrium specific to non-specific partition coefficient (V3″) Occipital Cortex: 0.24 ± 0.06
  Equilibrium specific to non-specific partition coefficient (V3″) Striatum: 1.01 ± 0.08
  Equilibrium specific to non-specific partition coefficient (V3″) Temporal Cortex: 0.39 ± 0.05
  Equilibrium specific to non-specific partition coefficient (V3″) Thalamus: 2.31 ± 0.25
SERT; [4]
  Thalamus to cerebellum ratio equal to true equilibrium ratio (V3″+1): 3.10
  Time at which measured thalamus to cerebellum ratio equals the true equilibrium ratio (estimate of peak specific binding): 64 min
SERT; baboons
  K1, average of all regions and all animals: 1.44 ± 0.40 mL/g/min
  VT, average of all regions and all animals: 57.5 ± 27.5 mL/g
  k2, average of all regions and all animals: 0.030 ± 0.015 min⁻¹
SERT; baboons, calculated from f1 and cerebellar VT
  f2 (free fraction in the nonspecific distribution volume): 0.32±0.04%
SERT; baboons, combining all regions
  V3″ expressed in percentage of [^11C]McN 5652 V3″: 193±35%
SERT; baboons, mean of all regions
  Mean regional peak uptake time: 38 ± 19 min
  Mean regional wash-out (% decrease between peak time and last scan): 32±26%
SERT; [5]
  Cingulate Cortex to cerebellum activity ratio at 90 minutes: 1.30 ± 0.09
  Hippocampus to cerebellum activity ratio at 90 minutes: 1.84 ± 0.40
  Midbrain to cerebellum activity ratio at 90 minutes: 3.48 ± 1.09
  Occipital Cortex to cerebellum activity ratio at 90 minutes: 1.26 ± 0.18
  Regional uptake peak time Cerebellum: 23 ± 11 min
  Regional uptake peak time Cingulate Cortex: 28 ± 11 min
  Regional uptake peak time Hippocampus: 39 ± 16 min
  Regional uptake peak time Midbrain: 56 ± 24 min
  Regional uptake peak time Occipital Cortex: 30 ± 14 min
  Regional uptake peak time Striatum: 44 ± 21 min
  Regional uptake peak time Temporal Cortex: 34 ± 14 min
  Regional uptake peak time Thalamus: 54 ± 22 min
  Striatum to cerebellum activity ratio at 90 minutes: 2.10 ± 0.24
  Temporal Cortex to cerebellum activity ratio at 90 minutes: 1.44 ± 0.20
  Thalamus to cerebellum activity ratio at 90 minutes: 3.51 ± 0.72
SERT; baboons, region encompassing the entire brain
  Total brain uptake at 45 min: 0.016±0.002 % ID g^−1
SERT; from Bmax/KD ratios, assuming same number of binding sites
  In vivo affinity relative to [^11C]DASB (times higher): 3.3 times
SERT; [6]
  Regional activity wash-out: % decrease from peak to last scan, Cerebellum: 48 ± 28%
  Regional activity wash-out: % decrease from peak to last scan, Cingulate Cortex: 43 ± 27%
  Regional activity wash-out: % decrease from peak to last scan, Hippocampus: 26 ± 27%
  Regional activity wash-out: % decrease from peak to last scan, Midbrain: 16 ± 22%
  Regional activity wash-out: % decrease from peak to last scan, Occipital Cortex: 42 ± 27%
  Regional activity wash-out: % decrease from peak to last scan, Striatum: 29 ± 31%
  Regional activity wash-out: % decrease from peak to last scan, Temporal Cortex: 36 ± 29%
  Regional activity wash-out: % decrease from peak to last scan, Thalamus: 18 ± 25%
SERT; [7]
  K1 Cerebellum: 1.52 ± 0.49 mL/g/min
  K1 Cingulate Cortex: 1.48 ± 0.40 mL/g/min
  K1 Hippocampus: 1.15 ± 0.35 mL/g/min
  K1 Midbrain: 1.57 ± 0.41 mL/g/min
  K1 Occipital Cortex: 1.35 ± 0.37 mL/g/min
  K1 Striatum: 1.48 ± 0.48 mL/g/min
  K1 Temporal Cortex: 1.25 ± 0.34 mL/g/min
  K1 Thalamus: 1.68 ± 0.42 mL/g/min
  K2 Cerebellum: 0.051 ± 0.021 min⁻¹
  K2 Cingulate Cortex: 0.039 ± 0.012 min⁻¹
  K2 Hippocampus: 0.023 ± 0.008 min⁻¹
  K2 Midbrain: 0.017 ± 0.006 min⁻¹
  K2 Occipital Cortex: 0.036 ± 0.011 min⁻¹
  K2 Striatum: 0.025 ± 0.010 min⁻¹
  K2 Temporal Cortex: 0.030 ± 0.010 min⁻¹
  K2 Thalamus: 0.017 ± 0.006 min⁻¹
  VT Cerebellum (VT CER, nonspecific distribution volume): 30.6 ± 3.9 mL/g
  VT Cingulate Cortex: 39.0 ± 4.7 mL/g
  VT Hippocampus: 51.5 ± 6.1 mL/g
  VT Midbrain: 96.3 ± 15.3 mL/g
  VT Occipital Cortex: 37.9 ± 3.6 mL/g
  VT Striatum: 61.9 ± 10.4 mL/g
  VT Temporal Cortex: 42.4 ± 4.5 mL/g
  VT Thalamus: 101.9 ± 20.4 mL/g
